Laboratory results reported in ChEMBL document CHEMBL4673385, “Discovery of Potent Inhibitors of Streptococcus mutans Biofilm with Antivirulence Activity” (ACS Med Chem Lett, 2021).
Calls of active or inactive are those of the source. The rule behind the calls is not given here.

Key:
[1] = target: T1, Glucosyltransferase-I (Streptococcus mutans serotype c (strain ATCC 700610 / UA159)) (UniProt P08987); assay: Inhibition of GtfB in Streptococcus mutans UA159 assessed as reduction in glucans level by Coomassie blue dye based SDS-PAGE analysis
T1 sequence (whole entry): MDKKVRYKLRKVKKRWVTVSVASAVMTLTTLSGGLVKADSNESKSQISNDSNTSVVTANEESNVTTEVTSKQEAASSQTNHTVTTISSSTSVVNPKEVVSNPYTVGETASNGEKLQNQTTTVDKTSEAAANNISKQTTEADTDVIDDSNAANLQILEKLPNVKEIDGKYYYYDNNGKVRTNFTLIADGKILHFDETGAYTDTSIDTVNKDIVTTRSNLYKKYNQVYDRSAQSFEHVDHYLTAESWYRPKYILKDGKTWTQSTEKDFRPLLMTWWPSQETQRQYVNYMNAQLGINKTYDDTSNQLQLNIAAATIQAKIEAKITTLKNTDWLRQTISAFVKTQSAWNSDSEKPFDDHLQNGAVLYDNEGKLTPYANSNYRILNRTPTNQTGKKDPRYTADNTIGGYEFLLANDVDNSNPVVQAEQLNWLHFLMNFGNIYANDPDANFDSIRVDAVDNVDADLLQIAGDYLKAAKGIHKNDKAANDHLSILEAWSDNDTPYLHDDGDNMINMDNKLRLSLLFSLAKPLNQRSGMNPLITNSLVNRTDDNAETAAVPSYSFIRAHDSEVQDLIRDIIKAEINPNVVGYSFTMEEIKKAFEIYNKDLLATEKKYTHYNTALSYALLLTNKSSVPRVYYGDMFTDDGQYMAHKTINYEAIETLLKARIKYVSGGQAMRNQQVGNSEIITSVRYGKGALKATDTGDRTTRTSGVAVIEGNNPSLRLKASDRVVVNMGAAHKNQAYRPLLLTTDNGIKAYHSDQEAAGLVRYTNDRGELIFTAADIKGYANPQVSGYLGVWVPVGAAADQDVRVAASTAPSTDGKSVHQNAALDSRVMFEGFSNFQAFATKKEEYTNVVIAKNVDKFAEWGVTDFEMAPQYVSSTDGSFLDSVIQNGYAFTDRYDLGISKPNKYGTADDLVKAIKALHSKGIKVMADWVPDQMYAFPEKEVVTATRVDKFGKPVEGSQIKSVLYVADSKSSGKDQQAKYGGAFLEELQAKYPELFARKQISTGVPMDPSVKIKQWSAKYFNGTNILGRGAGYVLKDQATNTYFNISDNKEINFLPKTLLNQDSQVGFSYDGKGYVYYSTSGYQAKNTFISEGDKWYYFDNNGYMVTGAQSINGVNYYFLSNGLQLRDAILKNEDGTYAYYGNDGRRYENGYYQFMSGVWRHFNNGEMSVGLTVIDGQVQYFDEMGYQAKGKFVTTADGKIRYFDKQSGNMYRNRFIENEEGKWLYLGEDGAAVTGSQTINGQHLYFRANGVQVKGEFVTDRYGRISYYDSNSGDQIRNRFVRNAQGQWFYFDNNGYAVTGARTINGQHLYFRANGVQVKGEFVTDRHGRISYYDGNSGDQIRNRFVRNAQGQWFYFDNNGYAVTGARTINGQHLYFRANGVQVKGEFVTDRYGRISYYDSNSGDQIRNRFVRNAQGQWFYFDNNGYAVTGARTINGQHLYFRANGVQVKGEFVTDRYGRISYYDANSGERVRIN

Streptococcus mutans [2] = assay: Antibiofilm activity against Streptococcus mutans UA159 infected in Fischer 344 rat assessed as sulcal score at 100 uM topically administered measured after 43 days; format: functional, organism-based; settings: time 43.0 day
Streptococcus mutans [3] = assay: Antibiofilm activity against Streptococcus mutans UA159 infected in Fischer 344 rat assessed as buccal score at 100 uM topically administered measured after 43 days; format: functional, organism-based; settings: time 43.0 day
Streptococcus mutans [4] = assay: Antibiofilm activity against Streptococcus mutans UA159 infected in Fischer 344 rat assessed as reduction in colony forming units at 100 uM topically administered measured after 43 days; format: functional, organism-based; settings: time 43.0 day
Streptococcus mutans [5] = assay: Antibiofilm activity against Streptococcus mutans UA159 infected in Fischer 344 rat assessed as proximal surface score at 100 uM topically administered measured after 43 days; format: functional, organism-based; settings: time 43.0 day
Streptococcus sanguinis = assay: Bactericidal activity against Streptococcus sanguinis SK36 assessed as reduction in bacterial growth at 100 uM after 24 hrs; format: functional
[6] = Toxicity in Fischer 344 rat infected with Streptococcus mutans UA159 assessed as reduction in body weight at 100 uM topically administered measured after 43 days; settings: in vivo, topical_or_ocular, 1032 h, time 43 day
Streptococcus gordonii = assay: Bactericidal activity against Streptococcus gordonii DL1 assessed as reduction in bacterial growth at 100 uM after 24 hrs; format: functional
[7] = Inhibition of Gtf in Streptococcus mutans UA159 assessed as reduction in glucans level by Coomassie blue dye based SDS-PAGE analysis

NC(=O)c1cccc(NC(=O)c2cnc3ccccc3c2)c1
inhibition [1]: Active

NC(=O)c1ccccc1NC(=O)c1cnc2ccccc2c1
Activity (Streptococcus mutans [2]): Active
Activity (Streptococcus mutans [3]): Active
inhibition [1]: Active
Activity (Streptococcus mutans [4]): inactive
Activity (Streptococcus mutans [5]): Active
Activity (Streptococcus sanguinis): inactive
Activity [6]: Non-Toxic
Activity (Streptococcus gordonii): inactive

O=C(c1ccc(F)cc1)c1ccc(-c2[nH]c(-c3ccc([N+](=O)[O-])cc3O)nc2-c2ccccc2)cc1
inhibition [1]: Active

COC(=O)c1ccc(NC(=O)c2cc3cc([N+](=O)[O-])ccc3s2)cc1
inhibition [1]: Active

NC(=O)c1ccccc1NC(=O)c1cc2cc([N+](=O)[O-])ccc2s1
Activity (Streptococcus mutans [2]): Active
Activity (Streptococcus mutans [3]): Active
IC50 [7]: 10 µM
inhibition [1]: Active
Activity (Streptococcus mutans [4]): inactive
Activity (Streptococcus mutans [5]): Active
Activity (Streptococcus sanguinis): inactive
Activity (Streptococcus gordonii): inactive

CC(C)(C)OC(=O)NCc1ccccc1NC(=O)c1cc2cc([N+](=O)[O-])ccc2s1
inhibition [1]: Active

CC(C)(C)OC(=O)NCc1ccccc1NC(=O)c1cnc2ccccc2c1
inhibition [1]: Active
